How the values were obtained:
DU145 cells = experiment: Combination of Example 1 and Metmetlico on the growth of DU145 cells; type: cell-based, human
Procedure: The cells used correspond to metastatic cells of human prostate cancer DU145. 10^5 DU145 cells are incubated in the various wells of a microplate in 1 ml of culture medium. The test compounds are added 4 hours after placing the cells in the wells. After 72 hours, the cells are removed at different times. The cells are washed twice with PBS and recovered directly with 0.1M sodium chloride. The effect on the growth of DU145 cells is measured by protein assay according to the Lowry method (Lowry, O. H., Rosenbrough, […]. and Randall, J. Biol. Chem. 193, 265-275, (1951)) and DNA assay by the Hoechst method (West, […]. and Kumar, S., Anal. Biochem. 147, 289-295, (1985)). The test compounds are the compound of Example 1, metmetlico and a mixture thereof.

BAF3-bcl2 H16 cells = experiment: Apoptosis induction (DNA fragmentation) in BAF3-bcl2 clone H16, 24 h; type: cell-based, mouse
Procedure: The BAF3-bcl2 cells correspond to BAF3 cells (mouse lymphocyte cells) tranfected with the bcl2 gene. Among these cells, four lines known as H16, G18, B14 and G21 overexpress the bcl2 gene.
Whereas the BAF3-b0 cells undergo apoptosis (more than 80% of the cells) in the absence of interleukin 3 (IL3) in 16 hours [according to Collins, M. K. L., Marvel, J., Malde, P. & Lopez-Rivas, A., J. Exp. Med. 176, 1043-1051, (1992)], the BAF3-bcl2 cells show no sign of apoptosis in the absence of IL3. They are thus apoptosis-resistant.
The procedure which was used is as follows: • The BAF3-b0 or BAF3-bcl2 cells, cultured in the presence of IL3, were labelled by a method adapted from that disclosed in Wright, S. et al., J. of Cell. Biochem. 48, 344-355, (1992).
10^5 cells/ml were incubated with 4.62 KBq.ml^−1 [^3H]-thymidine for 40 hours at 37° C. After two washes with culture medium, 2.5×10^6 cells were cultured in the presence of the test compound.
After incubating for 24 hours, these cells were recovered by centrifugation at 400×g for 5 minutes and washed 3 times with PBS buffer. The cells recovered in the pellet were lysed in 2 ml of 0.1% Triton X-100, 20 mM EDTA, 5 mM Tris pH 8 and centrifuged at 30 000×g at 4° C. for 30 minutes.
The supernatants were recovered and the pellets dissolved in 0.3 ml of 0.5N NaOH.
Aliquots of the culture medium (1 ml), of the supernatant (0.3 ml) and of the dissolved pellet (0.1 ml) were assayed in a scintillation counter.
The percentage of DNA fragments is calculated in the following way:
The percentage of fragmentation of the DNA is a direct measure of the apoptosis which the cells have undergone.

K562 cells = experiment: Growth of K562 cells (control, no MDR overexpression); type: cell-based, human; conditions: increasing concentrations, 72 h, FIGS. 7 and 8
Procedure: 10^5 cells were incubated in the various wells of a microplate in 1 ml of culture medium. These are R7 cells, on the one hand, and K562 cells, on the other hand.
After incubating for 4 hours, the test compound (compound of Example 1 according to the invention, on the one hand, and daunorubicin, on the other hand) was added to the wells containing the cells.
After 72 hours, the cells were collected at different times.
The growth of the cells was measured by counting the viable cells in the presence of 0.1% Trypan blue.
FIGS. 7 and 8 respectively represent the percentage inhibition (I %) by daunorubicin and the compound of Example 1 on the growth of the R7 and K562 cells, obtained at increasing concentrations C. The results obtained with the K562 cells are symbolized by ♦ and those obtained with the R7 cells are symbolized by ▴.

Structure (SMILES): CSC(=O)C#CC(C)(C)N(C)C [Example 1, S-methyl 4-dimethyl-amino-4-methyl-2-pentynethioate]
- % Inhibition of growth of the DU145 cells (DU145 cells; 2 μM): 5.8%
- % Inhibition of growth of the DU145 cells (DU145 cells; 3 μM): 16.1%
- % Inhibition of growth of the DU145 cells (DU145 cells; 4 μM): 22.4%
- DNA fragmentation (%) (BAF3-bcl2 H16 cells; H16, 1 μM): 2.9%
- DNA fragmentation (%) (BAF3-bcl2 H16 cells; H16, 2 μM): 6.3%
- DNA fragmentation (%) (BAF3-bcl2 H16 cells; H16, 4 μM): 65.3%
- DNA fragmentation (%) (BAF3-bcl2 H16 cells; H16, 8 μM): 94.2%
- Inhibition of the growth of the K562 cells (K562 cells): inhibitory effect obtained at the same concentrations on the growth of the K562 cells

From US8026231B2, “Aminothiolester compounds, pharmaceutical and cosmetic compositions containing same and uses thereof” (CNRS, priority 2000, dated 2011)
